Measured values published in PMC2635646, “Recognition Properties and Competitive Assays of a Dual Dopamine/Serotonin Selective Molecularly Imprinted Polymer” (International Journal of Molecular Sciences, 2008).
Where a name gives a salt, the structure may show the parent alone. Read-outs that look alike come from different tables or passages of the source.

What was measured:
[1] = target: serotonin receptors derived from rat hypothalamus; experiment: Displacement of S probe from natural receptor; assay type: binding, male-Wistar rat; conditions: 10 mg protein, 0.25 μmole S in 1 mL (250 μM), 37 °C, mean ± SD, n = 4; read-out: Ki, S ligand, Rat hypothalamus
Experimental: (§1) The equilibrium binding constants of the ergots on dopamine and serotonin receptors derived from rat hypothalamus was examined in a displacement assay using the added D and S as the molecular probes. The male-Wistar rat hypothalami receptors were isolated using a previously described procedure. The receptor pellets were washed with 50 mM Tris HCl until the endogenous D and S are no longer found in the rinse as examined by the fluorescence method described in the binding study. The pellets were then re-suspended in 50 mM Tris HCl with 0.5 mM Na2EDTA, 0.1% Na ascorbate before use. The protein content of the receptor pellets was verified by using the procedure of Bradford. Saturation experiments for the rat hypothalamus receptor were carried out by varying the concentration of D or S ligand in a 50 mM Tris HCl with 0.5 mM Na2EDTA and 0.1% Na ascorbate solution at 37 °C. The D and S binding at various concentrations was determined, using the fluorescence spectroscopic method for assay of the unbound probe as in the binding study.
(§2) The ability of 6–8 concentrations of test ergot (0.1–500 μg/mL or 0.16–890.20 μM) for typical profiles) to displace 0.25 μmole D and S probes was measured in drug displacement studies. […] To examine the equilibrium binding constant for the ergots, the unbound D and S probes was measured by fluorescence spectroscopy with the use of cation exchange resin to separate the protein bound and unbound probes. All experiments were performed four times using 50 mM Tris HCl with 0.5 mM Na2EDTA, 0.1% Na ascorbate as the medium, to which 10 mg of protein was added giving a final volume of 1 mL. The tubes were allowed to equilibrate for 30 min at 37 °C before filtering with a 0.45 μm cellulose acetate syringe filter (Whatman, NJ, USA) and were washed with two 5 mL ice-cold Tris-buffer. The filters were lyophilized and analysed for free probes. The supernatant aliquots were then passed through small columns of Amberlite CG-50 as previously reported. The 3 mL of formic acid-ethanol (1:3, v/v) eluates containing the analytes were evaporated to dryness in a polyethylene vial and the residues reconstituted with methanol (5 mL) before assay using fluorescence spectrometry. The binding of D and S probes in the presence of the ergots was calculated and plotted to the ergot concentrations for determination of IC50. An apparent Ki value was calculated in the same manner as described for the competitive ligand binding assay with DS-MIP.

[2] = Competitive ligand binding assay on DS-MIP with S as fluorescent probe; conditions: 25 mg polymer, S 5.90 μM, 5 mL 4:1 methanol/water, 28 ± 1 °C, mean ± SD, n = 3
Experimental: (§3) In this study, DS-MIP was employed as the sorbent phase for the determination of binding characteristics of the ergot family of alkaloids by competitive ligand binding assay experiment. The ability of the various ergot alkaloids (ergocryptine, ergocornine, ergocristine, ergonovine, agroclavine, pergolide and terguride) to displace bound D and S from the binding sites was measured. Figures 8(a,b) show competitive binding assays with the ergots in the presence of D and S as fluorescent probes. The typical sigmoid calibration curves were obtained for both the D ligand and the S ligand. […] Clearly, the ergot derivatives are able to act as competitors at the DS-MIP binding sites.
(§4) Figure 8. Plots of the ratio of the normalized signal (B/Bî) for MIP to that obtained for NIP against the logarithm of the ergot concentrations for the competitive ligand binding assay using DS-MIP as adsorbent phase and (a) D and (b) S as a fluorescent probe. The values shown are mean ± SD of three replicate specimens.
(§5) Seven ergoline compounds (ergocryptine, ergocristine, ergocornine, ergonovine, agroclavine, pergolide and terguride) were assessed for their ability to displace D or S bound to DS-MIP. DS-MIP or NIP particles (25 mg) were mixed with 6.25 μg of either D (or S) and varying amounts of ergot (final concentration: 0.02 - 500 μg/mL or 0.03 - 890.20 μM) in the suspension solvent (4:1, v/v methanol/water) up to a final volume of 5 ml. The mixture was incubated for 8 h at room temperature, maintaining constant stirring. The changes in fluorescence intensity of D probe in solution were monitored at 320 nm following excitation at 279 nm; for the S probe in solution, monitoring was at 335 nm after excitation at 300 nm. The experimental signals were normalized as: B/Bî, where B is the fluorescence intensity measured in the presence of increasing ergot concentrations and Bî is the signal in the absence of the ergot compound. The ratio of the normalized signal for MIP to that obtained for NIP was plotted as a function of the logarithm of the competitor concentration. Statistical analysis of concentration-response curves was performed by using the computer program GraphPad software, which calculates the lower and upper plateaus, the slope, and the IC50, concentration of an inhibitor producing 50% inhibition. An apparent inhibition constant (Ki) value was calculated using eq (3): (3) Ki=IC50/(1+[L]/Kd) where Ki = apparent inhibitor constant, [L] = free concentration of dopamine or serotonin, and Kd = apparent dissociation constant of a given MIP for D (or S). All experiments were performed in triplicate.

[3] = Time course of binding of ergot compounds to DS-MIP (HPLC-ECD assay); conditions: 4:1 (v/v) methanol/water, 28 ± 1 °C
Experimental: The specificity of binding of a group of ergoline derivatives (ergocryptine, ergocornine, ergocristine, ergonovine, agroclavine, pergolide and terguride) to DS-MIP was assessed in 4:1 (v/v) methanol/water at room temperature (28 ± 1 °C). The binding of all the ergots to DS-MIP reached a constant value within 3 h, with ~50% of the DS-MIP-analyte complex being formed by 1 h (Figure 7). […] Based on the specific binding of the ergots to DS-MIP, the tested ergots are readily distinguished into three groups, based on their chemical structures. All of the ergot derivatives tested had typical four fused rings, indolyl amine, piperidinyl amine, and N-methyl and heteroatom-containing alkylpiperidinyl substituents (except pergolide with the N-propyl substituent). The differential binding of the ergot derivatives is probably a consequence of the interaction of the piperidinyl and indolyl amines with acidic and amide functions within the polymer. The orientation of functional entities within the D and S imprinted cavities was not optimal to complement the ergot derivatives, but they existed in sufficient numbers to produce the observed binding effect.
Figure 7. Time course for the binding of ergot compounds to DS-MIP at room temperature (28 ± 1 °C). Binding studies were conducted in 4:1 (v/v) methanol/water using 12.5 mg of polymer and 12.5 μg of each ergot in a final volume of 5 mL (4.1–10.5 μM). At equilibrium, analytes were quantitated in the filtrate by chromatographic assays as described in the Experimental Section. The values shown are mean ± SD of three replicate specimens.
The binding reactivities of ergocryptine, ergocristine, ergocornine, ergonovine, agroclavine, pergolide and terguride, in an incubation medium were evaluated using a chromatographic assay. Briefly, DS-MIP particulates (2.5 mg/mL) were incubated between 0 and 13 h in 10-mL vials at room temperature by agitation with each ergot compound (2.5 μg/mL, 4.1–10.5 μM) in methanol/water (5 mL, 4:1, v/v). At pre-determined time intervals, the filtrate was analysed for the amount of unbound substance by HPLC (see below). The percentage of ergot bound to the polymer was plotted as a function of the incubation time. Each experiment was repeated three times.
A reversed phase HPLC-ECD detection method was used for assay of the ergots. A mobile phase comprising of a buffer (pH 7.4) and methanol (34:66, % v/v) was used for elution. The buffer composition was as follows: 15 mM KH2PO4, 3.75 mM sodium heptanesulfonate and 7.5 mM KCl aqueous solution adjusted to pH 7.4 by phosphoric acid. The analytical column was a Luna 5μ C18, 25 cm × 0.46 cm (Phenomenex, CA, USA). A flow-rate of 1.0 mL/min was used. The electrochemical detector was set at 0.8 V potential. Correlation coefficients for calibration curves for the ergots in the range 2–25 μg/mL ([…]) were greater than 0.999. The sensitivity of detection was about 1.0 μg/mL (1.64–4.20 μM) and the reproducibility of the peak areas of analytes was more than 95%.

[4] = Competitive ligand binding assay on DS-MIP with D as fluorescent probe; conditions: 25 mg polymer, D 6.60 μM, 5 mL 4:1 methanol/water, 28 ± 1 °C, mean ± SD, n = 3
Experimental: as §3, §4, §5

[5] = target: dopamine receptors derived from rat hypothalamus; experiment: Displacement of D probe from natural receptor; assay type: binding, male-Wistar rat; conditions: 10 mg protein, 0.25 μmole D in 1 mL (250 μM), 37 °C, mean ± SD, n = 4; read-out: Ki, D ligand, Rat hypothalamus
Experimental: as §1, §2

[6] = 1H-NMR titration of template/functional monomer complexation; assay type: binding; conditions: d6-DMSO, 25 °C
Text: A mixture of methanol and water (4:1, v/v) was chosen as the porogen solvent for the D and S templates, as the hydrochloride salts were soluble only in polar solvents. The strength and positioning of the monomer-template interactions are of importance in developing materials with good molecular recognition properties. For the current work, the functional monomers and cross-linker had been constructed into the MIP structure with a view toward obtaining an efficient recognition system in a polar medium. MAA and ACM were generally used as functional monomers for the imprinting process. Both D and S have a phenolic hydroxyl and the nitrogen atom(s) of the amine group(s) acts as a hydrogen donor-acceptor moiety for binding functional monomers with a corresponding hydrogen bonding pattern. […] However, the huge excess of water and methanol that would be form H-bonds in competition with template and monomer, would reduce binding energy between template and monomer. […] The MBAA cross-linker also forms hydrogen bonds with the carboxylic acid and amino groups of the templates. Figure 2 illustrates the dual dopamine/serotonin molecular recognition site generation in this work.
The change in chemical shifts of proton resonances as a function of D (or S) concentrations was studied in DMSO-d6.

[7] = tested on: dopamine receptors derived from rat hypothalamus; conditions: D ligand, 50 mM Tris HCl, 37 °C, mean ± SD, n = 3
Experimental: as §1

[8] = tested on: serotonin receptors derived from rat hypothalamus; experiment: Saturation binding of S ligand to rat hypothalamus receptor (Scatchard); set-up: species or system male-Wistar rat; conditions: 50 mM Tris HCl, 37 °C, mean ± SD
Experimental: as §1

SMILES	Ki [1]	Ki [2]	binding to DS-MIP, fold lower than agroclavine [3]	Ki [4]	Ki [5]	other results
C[C@@H](CO)NC(=O)[C@@H]1C=C2c3cccc4[nH]cc(c34)C[C@H]2N(C)C1 [Ergonovine, ergonovine maleate]	0.0012 ± 0.0001 µM	14.7 ± 0.29 µM	~ 1.25 fold	69.57 ± 0.51 µM	2.5 ± 0.1 nM	
CC(C)[C@H]1C(=O)N2CCC[C@H]2[C@]2(O)O[C@](NC(=O)[C@@H]3C=C4c5cccc6[nH]cc(c56)C[C@H]4N(C)C3)(C(C)C)C(=O)N12 [Ergocornine, ergocornine]	0.02 ± 0.0001 µM	27.2 ± 0.78 µM	about 2 fold	217 ± 2.59 µM	10.4 ± 0.2 nM	
NCCc1ccc(O)c(O)c1 [D, Dopamine hydrochloride]						Kd ([6]; 1:1 complex of D with single monomer, read-out: apparent dissociation constant (app. Kdiss) of complex with ACM): 1980 ± 100 µM; Kd ([6]; 1:1 complex of D with single monomer, read-out: apparent dissociation constant (app. Kdiss) of complex with MAA): 2120 ± 200 µM; receptor binding (Bmax) [7]: 1.50 ± 0.09 pmol/mg protein; Kd ([7]; read-out: dissociation constant (Kd)): 0.00053 ± 0.00015 µM
NCCc1c[nH]c2ccc(O)cc12 [S, serotonin hydrochloride]						Kd ([6]; S template, 1:1 complex, read-out: app. Kdiss with MAA, template's hydroxyl group): 680 ± 100 µM; Kd ([6]; S template, 1:1 complex, read-out: app. Kdiss with MAA, template's indolyl amino group): 920 ± 100 µM; Kd ([6]; S template, read-out: app. Kdiss with ACM, template's hydroxyl group): 190 ± 100 µM; Kd ([6]; S template, read-out: app. Kdiss with ACM, template's indolyl amino group): 430 ± 100 µM; receptor binding (Bmax) ([8]; n = 3): 1.11 ± 0.01 pmol/mg protein; Kd ([8]; n = 3, read-out: dissociation constant (Kd)): 0.00011 ± 1e-05 µM
CC1=C[C@@H]2c3cccc4[nH]cc(c34)C[C@H]2N(C)C1 [Agroclavine, agroclavine]	0.0012 ± 0.0001 µM	5.31 ± 0.22 µM		0.4 ± 0.01 µM	1.5 ± 0.2 nM	binding with DS-MIP ([3]; DS-MIP 2.5 mg/mL, ergot 2.5 μg/mL): 70%
CC(C)[C@@]1(NC(=O)[C@@H]2C=C3c4cccc5[nH]cc(c45)C[C@H]3N(C)C2)O[C@@]2(O)[C@@H]3CCCN3C(=O)[C@H](Cc3ccccc3)N2C1=O [Ergocristine, ergocristine]	0.0068 ± 0.0002 µM	19.3 ± 0.6 µM	about 2 fold	141 ± 1.47 µM	7.6 ± 0.1 nM	
CCCN1C[C@H](CSC)C[C@@H]2c3cccc4[nH]cc(c34)C[C@H]21 [Pergolide, pergolide mesylate]	0.006 ± 0.0002 µM	12.78 ± 0.09 µM	~ 1.25 fold	0.2 ± 0.01 µM	0.7 ± 0.1 nM	
CCN(CC)C(=O)N[C@H]1C[C@@H]2c3cccc4[nH]cc(c34)C[C@H]2N(C)C1 [Terguride, terguride]	0.0013 ± 0.0001 µM	7.79 ± 0.17 µM	~ 1.25 fold	0.14 ± 0.01 µM	0.03 ± 0.005 nM	
CC(C)C[C@H]1C(=O)N2CCC[C@H]2[C@]2(O)O[C@](NC(=O)[C@@H]3C=C4c5cccc6[nH]cc(c56)C[C@H]4N(C)C3)(C(C)C)C(=O)N12 [Ergocryptine, ergocryptine]	0.01 ± 0.0004 µM	24.9 ± 0.69 µM	about 2 fold	124.9 ± 1.22 µM	2.8 ± 0.2 nM	
